The values below come from patent publication US9481709B2, “Boropeptide inhibitors of enteropeptidase and their uses in treatment of obesity, overweight and/or diseases associated with an abnormal fat metabolism” (OBE THERAPY BIOTECHNOLOGY, priority 2007, dated 2016).

The target of experiment [1] is T1, Trypsin from human pancreas (Homo sapiens, UniProt P07477).
T1 construct: Trypsin from human pancreas; purchased SIGMA T6424; host or cells: human pancreas
The experiment is described as follows: Trypsin assay. It is filed as biochemical. The settings on record: in vitro; range printed jointly for trypsin, kallikrein and plasmin. The procedure: (§1) 2.2. Thrombin, Trypsin, Kallikrein, Plasmin, Chymotrypsin and Elastase Assay
(§2) Table IV below lists the final concentrations of the tested enzymes and the corresponding substrates, in the determination of the IC50 without inhibitor (positive control) and in inhibition protocols:
(§3) Measurement without Inhibitor (Positive Control)
(§4) In 17 μl of TN, 1 μl of enzyme and 2 μl of substrate was mixed, just before reading; The Absorbance was measured at 405 nm on EnVision (Perkin Elmer).
(§5) Inhibition in 384 Well Plate Small Volume ([…])
(§6) In 15 μl of TN, 1 μl of enzyme and 2 μl of Inhibitor (compound of the invention) at different concentrations were mixed and incubated at RT for 30 minutes; 2 μl of substrate was added, just before reading; The Absorbance was measured at 405 nm on EnVision (Perkin Elmer).

Experiment [2] deals with Thrombin (Homo sapiens, UniProt P00734). The experiment is described as follows: Thrombin. An excerpt:
(§7) Table printed on a drawing sheet, Fig. 5
Head of the field: Thrombin
(§8) The patent's description of the figure: FIG. 5 is a Table showing the IC 50 (in nM) of enteropeptidase, various serine proteases and other enzyme families, in the presence of compounds OBE 1999, OBE 2000, OBE 2001 or OBE 2002.
(§9) First copying reader's note: Each column is one compound; each row gives its IC50 against the named enzyme.
Where the first naming reader finds the target: head: Thrombin

The target of experiment [3] is T2, Enteropeptidase (Homo sapiens, UniProt P98073). The experiment is described as follows: Enteropeptidase assay (Np Tosyl Gly Pro Arg pNa substrate, absorbance 405 nm). The format is biochemical. Details: purchased RD system 1585SE. The settings on record: in vitro, 30 min preincubation at RT. As for the experimental part: 2.1. Enteropeptidase Assay
Activation of the Enteropeptidase
A mix of enteropeptidase at 58.8 nM (final) and thermolysine at 1.58 ng/I (final) in TCN buffer was prepared; the mix was incubated at 37° C. during 30 minutes for activation. Phosphoramidon (10 μM final) was added to stop the activation by thermolysine.
Measurement of Enteropeptidase Activity without Inhibitor (Positive Control)
In 17 μl of TCN, 1 μl of active enzyme (2.9 nm final) and 2 μl Np Tosyl Gly Pro Arg pNa (1 mM final) were mixed, just before reading. The Absorbance was measured at 405 nm on EnVision (Perkin Elmer).
as §5
In 15 μl of TCN, 1 μl of active enzyme and 2 μl of Inhibitor (compound of the invention) at different concentrations were mixed, and incubated at RT (room temperature) for 30 minutes; 2 μl Np Tosyl Gly Pro Arg pNa (1 mM final) was added just before reading. The Absorbance was measured at 405 nm on EnVision (Perkin Elmer).
Target sequence in this assay (P98073 785-1019 limits assumed): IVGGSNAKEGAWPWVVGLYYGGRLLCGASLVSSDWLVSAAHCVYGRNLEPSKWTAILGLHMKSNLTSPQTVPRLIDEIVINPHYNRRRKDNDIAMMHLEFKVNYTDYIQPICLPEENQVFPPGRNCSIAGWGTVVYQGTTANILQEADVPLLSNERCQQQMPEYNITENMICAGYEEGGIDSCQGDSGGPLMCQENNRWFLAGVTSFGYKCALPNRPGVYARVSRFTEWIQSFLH
Target sequence in this assay (P98073 2-784 partner limits assumed): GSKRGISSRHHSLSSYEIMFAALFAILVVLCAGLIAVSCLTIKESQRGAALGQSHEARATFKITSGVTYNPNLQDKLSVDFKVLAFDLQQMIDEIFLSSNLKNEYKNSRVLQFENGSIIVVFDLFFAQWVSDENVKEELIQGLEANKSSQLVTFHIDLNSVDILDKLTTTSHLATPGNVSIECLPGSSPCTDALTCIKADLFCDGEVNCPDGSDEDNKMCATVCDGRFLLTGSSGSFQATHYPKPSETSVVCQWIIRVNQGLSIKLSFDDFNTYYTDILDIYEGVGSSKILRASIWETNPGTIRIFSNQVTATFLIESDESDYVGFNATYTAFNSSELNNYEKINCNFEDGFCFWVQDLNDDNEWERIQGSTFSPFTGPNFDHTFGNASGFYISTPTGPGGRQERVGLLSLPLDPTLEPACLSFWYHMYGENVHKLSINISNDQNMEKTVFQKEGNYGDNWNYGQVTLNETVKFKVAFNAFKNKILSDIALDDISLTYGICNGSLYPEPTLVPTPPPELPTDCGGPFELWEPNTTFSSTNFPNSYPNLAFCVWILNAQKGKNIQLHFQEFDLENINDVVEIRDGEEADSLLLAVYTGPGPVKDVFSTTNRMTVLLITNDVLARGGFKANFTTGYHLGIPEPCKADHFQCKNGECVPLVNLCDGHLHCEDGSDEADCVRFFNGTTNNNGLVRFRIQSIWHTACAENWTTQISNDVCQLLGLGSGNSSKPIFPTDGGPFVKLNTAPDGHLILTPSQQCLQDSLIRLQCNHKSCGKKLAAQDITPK

Experiment [4] concerns the target T3, Plasmin from human plasma (Homo sapiens, UniProt P00747).
T3 construct: Plasmin from human plasma; purchased SIGMA P1867; host or cells: human plasma
The experiment is described as follows: Plasmin assay. It is filed as biochemical. The settings on record: in vitro. As for the experimental part: as §1, §2, §3, §4, §5, §6

For experiment [5], the target named is Kallikrein (Homo sapiens, UniProt P03952). The experiment is described as follows: Kallikrein.
Kallikrein, sequence (P03952 20-638): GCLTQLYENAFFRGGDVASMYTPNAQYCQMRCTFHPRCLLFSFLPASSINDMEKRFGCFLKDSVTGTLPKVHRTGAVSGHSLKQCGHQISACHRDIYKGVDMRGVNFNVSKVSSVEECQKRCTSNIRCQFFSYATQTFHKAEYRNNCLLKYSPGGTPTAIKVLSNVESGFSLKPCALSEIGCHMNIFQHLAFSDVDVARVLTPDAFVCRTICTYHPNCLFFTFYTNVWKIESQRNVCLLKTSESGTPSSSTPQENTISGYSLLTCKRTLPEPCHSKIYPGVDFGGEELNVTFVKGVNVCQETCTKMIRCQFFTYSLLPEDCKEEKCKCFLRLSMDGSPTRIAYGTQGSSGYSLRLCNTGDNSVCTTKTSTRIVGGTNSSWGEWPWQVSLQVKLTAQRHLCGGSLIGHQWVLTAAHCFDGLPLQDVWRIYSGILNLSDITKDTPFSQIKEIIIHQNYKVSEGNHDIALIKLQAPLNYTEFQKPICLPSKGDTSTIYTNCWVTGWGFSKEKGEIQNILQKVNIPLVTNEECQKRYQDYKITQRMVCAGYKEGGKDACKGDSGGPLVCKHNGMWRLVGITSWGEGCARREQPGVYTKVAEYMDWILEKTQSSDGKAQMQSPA
Text: as §7
Head of the field: Kallikrein
as §8, §9
Where the first naming reader finds the target: head: Kallikrein

In experiment [6] the target is T4, Kallikrein from human plasma (Homo sapiens, UniProt P03952).
T4 construct: Kallikrein from human plasma; purchased SIGMA K2638; host or cells: human plasma
T4 sequence (P03952 391-638 limits assumed): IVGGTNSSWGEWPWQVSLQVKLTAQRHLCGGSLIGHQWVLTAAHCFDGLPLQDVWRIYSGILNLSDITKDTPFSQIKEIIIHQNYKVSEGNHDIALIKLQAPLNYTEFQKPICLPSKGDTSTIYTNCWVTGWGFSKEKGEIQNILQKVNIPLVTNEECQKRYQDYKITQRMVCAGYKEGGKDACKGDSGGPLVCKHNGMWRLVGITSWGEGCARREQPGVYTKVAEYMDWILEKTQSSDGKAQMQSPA
T4 sequence (P03952 20-390 partner limits assumed): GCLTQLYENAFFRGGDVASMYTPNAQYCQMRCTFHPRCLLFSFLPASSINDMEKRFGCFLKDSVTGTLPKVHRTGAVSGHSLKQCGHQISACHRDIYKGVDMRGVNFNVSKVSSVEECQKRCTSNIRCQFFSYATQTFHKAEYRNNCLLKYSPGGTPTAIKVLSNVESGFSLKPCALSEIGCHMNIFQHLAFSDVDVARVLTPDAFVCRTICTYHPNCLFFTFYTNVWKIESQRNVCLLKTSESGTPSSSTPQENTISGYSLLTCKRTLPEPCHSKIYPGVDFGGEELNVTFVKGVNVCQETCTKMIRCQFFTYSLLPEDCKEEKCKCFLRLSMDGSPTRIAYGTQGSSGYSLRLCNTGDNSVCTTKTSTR
The experiment is described as follows: Kallikrein assay. The format is biochemical. The conditions noted are these: in vitro. The procedure:
as §1, §2, §3, §4, §5, §6

The target in experiment [7] is Plasmin (Homo sapiens, UniProt P00747). The experiment is described as follows: Plasmin.
Plasmin, sequence (P00747 97-810): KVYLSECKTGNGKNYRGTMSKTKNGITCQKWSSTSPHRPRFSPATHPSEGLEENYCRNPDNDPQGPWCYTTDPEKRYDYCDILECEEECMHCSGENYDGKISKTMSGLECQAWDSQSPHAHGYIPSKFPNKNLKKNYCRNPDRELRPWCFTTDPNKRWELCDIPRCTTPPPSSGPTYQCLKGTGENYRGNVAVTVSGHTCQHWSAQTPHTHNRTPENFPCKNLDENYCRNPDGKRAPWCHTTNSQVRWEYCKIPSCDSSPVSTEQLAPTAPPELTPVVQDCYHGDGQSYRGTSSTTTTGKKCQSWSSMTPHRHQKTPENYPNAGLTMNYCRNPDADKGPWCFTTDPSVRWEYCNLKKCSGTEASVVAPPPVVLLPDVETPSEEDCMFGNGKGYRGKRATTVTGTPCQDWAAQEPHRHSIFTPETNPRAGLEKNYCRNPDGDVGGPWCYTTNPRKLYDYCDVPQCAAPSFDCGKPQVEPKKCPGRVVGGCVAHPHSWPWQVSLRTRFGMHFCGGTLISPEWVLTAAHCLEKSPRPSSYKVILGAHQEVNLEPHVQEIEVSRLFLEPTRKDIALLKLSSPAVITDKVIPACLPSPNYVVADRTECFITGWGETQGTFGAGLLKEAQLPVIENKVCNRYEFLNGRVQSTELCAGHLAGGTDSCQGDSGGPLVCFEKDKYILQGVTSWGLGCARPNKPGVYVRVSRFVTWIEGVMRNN
Text: as §7
Head of the field: Plasmin
as §8, §9
Where the first naming reader finds the target: head: Plasmin

Experiment [8] addresses T2, Enteropeptidase. The experiment is described as follows: Enteropeptidase.
Text: as §7
Head of the field: Enteropeptidase
as §8, §9
Where the first naming reader finds the target: head: Enteropeptidase
Target sequence in this assay (P98073 2-1019): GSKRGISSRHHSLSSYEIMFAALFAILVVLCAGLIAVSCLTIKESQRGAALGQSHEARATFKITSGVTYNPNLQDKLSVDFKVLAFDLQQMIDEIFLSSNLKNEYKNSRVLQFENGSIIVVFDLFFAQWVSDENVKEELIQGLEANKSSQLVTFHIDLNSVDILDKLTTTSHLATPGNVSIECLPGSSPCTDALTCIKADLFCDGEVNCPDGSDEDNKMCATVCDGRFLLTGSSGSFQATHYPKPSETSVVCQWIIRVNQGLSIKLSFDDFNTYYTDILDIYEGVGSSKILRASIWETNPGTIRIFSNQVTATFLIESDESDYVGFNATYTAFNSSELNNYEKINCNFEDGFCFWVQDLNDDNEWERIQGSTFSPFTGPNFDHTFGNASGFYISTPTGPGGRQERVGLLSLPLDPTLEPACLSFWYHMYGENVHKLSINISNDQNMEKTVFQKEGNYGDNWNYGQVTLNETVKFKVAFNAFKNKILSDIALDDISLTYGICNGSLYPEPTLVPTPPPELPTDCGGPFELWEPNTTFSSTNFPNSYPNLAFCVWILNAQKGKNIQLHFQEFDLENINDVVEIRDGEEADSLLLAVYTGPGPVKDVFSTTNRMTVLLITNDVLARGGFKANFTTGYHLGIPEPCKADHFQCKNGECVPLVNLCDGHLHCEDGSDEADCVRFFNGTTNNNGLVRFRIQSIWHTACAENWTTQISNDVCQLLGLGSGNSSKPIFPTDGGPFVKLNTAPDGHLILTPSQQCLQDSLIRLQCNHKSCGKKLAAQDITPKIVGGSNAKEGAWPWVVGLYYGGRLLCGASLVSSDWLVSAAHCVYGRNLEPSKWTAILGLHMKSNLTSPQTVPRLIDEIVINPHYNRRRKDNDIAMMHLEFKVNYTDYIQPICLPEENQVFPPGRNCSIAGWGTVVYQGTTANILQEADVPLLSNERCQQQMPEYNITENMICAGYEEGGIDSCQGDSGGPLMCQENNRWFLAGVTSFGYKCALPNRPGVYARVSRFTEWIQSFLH

Experiment [9] concerns the target T5, Thrombin from human plasma (Homo sapiens, UniProt P00734).
T5 construct: Thrombin from human plasma; purchased SIGMA T1063; host or cells: human plasma
The experiment is described as follows: Thrombin assay. The format is biochemical. The settings on record: in vitro. The procedure:
as §1, §2, §3, §4, §5, §6

Experiment [10] has as its target Trypsin (Homo sapiens, UniProt P07477). The experiment is described as follows: Trypsin.
Text: as §7
Head of the field: Trypsin
as §8, §9
Where the first naming reader finds the target: head: Trypsin

T3 sequence (P00747 581-810 limits assumed): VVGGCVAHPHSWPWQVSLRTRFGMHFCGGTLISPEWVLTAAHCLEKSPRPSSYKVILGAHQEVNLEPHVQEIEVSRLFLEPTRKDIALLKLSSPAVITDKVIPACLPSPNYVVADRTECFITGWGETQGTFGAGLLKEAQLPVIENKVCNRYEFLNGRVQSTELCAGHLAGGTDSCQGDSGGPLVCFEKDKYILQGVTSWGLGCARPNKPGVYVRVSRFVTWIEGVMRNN
T3 sequence (P00747 98-580 partner limits assumed): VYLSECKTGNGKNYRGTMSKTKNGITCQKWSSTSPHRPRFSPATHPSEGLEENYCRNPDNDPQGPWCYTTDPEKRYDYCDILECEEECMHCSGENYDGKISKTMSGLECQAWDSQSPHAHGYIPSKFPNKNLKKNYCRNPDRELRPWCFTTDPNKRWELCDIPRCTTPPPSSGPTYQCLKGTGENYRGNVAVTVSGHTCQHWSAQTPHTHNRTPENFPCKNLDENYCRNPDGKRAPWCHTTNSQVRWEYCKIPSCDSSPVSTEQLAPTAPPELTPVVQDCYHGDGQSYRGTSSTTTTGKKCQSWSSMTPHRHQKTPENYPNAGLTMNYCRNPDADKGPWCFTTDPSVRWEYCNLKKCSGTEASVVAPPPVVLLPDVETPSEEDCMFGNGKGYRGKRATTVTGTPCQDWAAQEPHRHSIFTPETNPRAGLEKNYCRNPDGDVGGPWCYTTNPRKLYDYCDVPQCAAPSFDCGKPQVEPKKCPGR

Turning to `C[C@H](N)C(=O)N[C@@H](Cc1ccccc1)C(=O)N[C@@H](CCCNC(=N)N)B1OC2C[C@@H]3C[C@@H](C3(C)C)[C@]2(C)O1` (stereo partly shown) [OBE1999], the IC50 in [1] is 0.0075 to 0.0298 µM; in [2] it was 6.4 µM; in [3] it was 0.033 µM; in [4] it was 0.0075 to 0.0298 µM; in experiment [5] it was 0.0075 µM; in [6] it was 0.0075 to 0.0298 µM. In addition, half-maximal inhibition in experiment [7] (IC50) was put at 0.0298 µM.
For the molecule `CC1(C)[C@@H]2CC3OB([C@H](CCCNC(=N)N)NC(=O)CNC(=O)[C@@H](N)CCC(=O)O)O[C@@]3(C)[C@H]1C2` (stereo partly shown) [OBE2000], the IC50 in [8] stood at 0.068 µM; in experiment [2], 3.22 µM; in experiment [4], 7.1 µM; in experiment [6] it was 0.26 µM. Also, in experiment [3], the IC50 enteropeptidase entry is reported as “low value of IC50”. Moreover, the IC50 thrombin result in experiment [9] is recorded as “high value of IC50”.
Consider `CC(=O)N[C@@H](CCC(=O)O)C(=O)NCC(=O)N[C@@H](CCCN=C(N)N)B(O)O` [OBE2002, Acetyl-Glu-Gly-BoroArg], for which the IC50 in experiment [10] came to 0.0105 µM; in [8], 0.0336 µM; in experiment [5] it was 0.0814 µM; in experiment [7], 3.8 µM. In experiment [4], the IC50 plasmin entry is recorded as “low IC50 value”. In addition, the IC50 kallikrein entry in [6] is reported as “low IC50 value”.

What is called IC50 is the concentration that inhibits the measured activity by half. Low readings indicate greater potency, high ones weaker potency.
